Here are results for two compounds from patent US20150126581A1, “MicroRNAs and Uses Thereof” (The University of Western Australia, priority 2012, published 2015).

Test [1] relates to obese diabetic mice. To be noted: cited from earlier work.
Test [2] concerns HeLa cells. In words: CellTiter 96 AQueous One (MTS) endpoint growth assay with mimosine. The test is classed as cell-based, human. To be noted: mimosine 50 and 250 μM, 3 d exposure (Day 5 post miRNA transfection). On the procedure: Endpoint growth assays were then performed using the CellTiter 96® AQueous One Solution Cell Proliferation System (MTS) (Promega, USA) to determine effects of miRNAs and mimosine on cell proliferation. HeLa cells were transiently transfected with miRNA negative control or hsa-miR-331-3p/hsa-miR-642-5p as described above, and 5000 transiently transfected HeLa cells were plated in 96 well plates. Plates were incubated in a 37° C. incubator (5% CO2) for 2 days and then exposed for a further 3 days to mimosine (0, 50 or 250 μM). Media was then replaced with a MTS substrate/growth media mixture (180 μL of growth media, 20 μL MTS reagent) and left for 30 min at 37° C. Absorbance was measured using a Fluostar Optima Instrument (Walker scientific) at 450 nm.

In test [3] the test system is HeLa cells. To be noted: stated ability of mimosine (arrest in G1); cited from earlier work.
Test [4] deals with HeLa cells. Kind of test: Observation of HeLa cell morphology and size under mimosine. Conditions: increasing concentrations of mimosine. The test is classed as cell-based, human. On the procedure:
The effect of the combination of hsa-miR-331-3p and hsa-miR-642-5p on the transient effects of the DOHH inhibitor mimosine in HeLa cells was assessed. Initially, the xCELLigence™ System was used but growth curves could not be established using mimosine that reflected the observed changes in cell viability (data not shown). […] This was attributed to the ability of mimosine to arrest cell in […] and increase cell size by up to 25%.

Turning to `N=C(N)NCCCCCCCN` [GC7, N1-guanyl-1,7-diaminoheptane], in test [1], the Glucose tolerance entry is “improved glucose tolerance”, the Insulin release result is listed as “increased insulin release” and the β cell mass result is recorded as “enhanced β cell mass”.

With `NC(Cn1ccc(=O)c(O)c1)C(=O)O` (stereo not drawn) [mimosine], the “HeLa cell proliferation (MTS), mimosine alone” value in test [2] is “significant block of cell proliferation”. Besides, the “Increase of cell size” value in test [3] is reported as “up to 25%”. Moreover, the HeLa cell morphology entry in test [4] was “changed the morphology of HeLa cells from a spindle like epithelial morphology to a large, round and flattened morphology”.
